The values below come from US6514967B1 (priority 1997, dated 2003).

The target of one data set is xanthine oxidase (Homo sapiens, UniProt P47989). As to the kind of experiment: Action of the derivatives on xanthine oxidase. The format is biochemical. The procedure: Action of the derivatives on xanthine oxidase:
(Free Radical Biology & Medicine, Vol 20, No 1, pp.35-43, 1996)
[…] of xanthine 20 mM in soda 0.1N and […] of the test product in phosphate buffer at pH 7.4 were placed in a final volume of 2 ml. Reaction is started by adding […] of solution of xanthine oxidase at 0.56 U/ml. Formation of […] is monitored by UV spectroscopy at 290 nm. Allopurinol is a reference inhibitor.

For data set [1], the system named is release of free radicals induced by glutamate in the striatum. The data set is described as follows: In vivo intracerebral perfusion (striatum microdialysis), generation of radicals by injection of glutamate. The following applies: 1 mM in perfusion medium. From the text: C) tests in vivo on intracerebral perfusion and generation of radicals by injection of glutamate.
Experimental preparation: [J. Neurosci. Methods, 72 (1997) 123-135]
The animals used are male rats of the Wistar strain weighing 250 g. Under general anaesthesia, the animals are placed in a stereotaxic apparatus. A cannula guide is introduced by microsurgery into the striatum (coordinates A : +0.02 cm; L: −0.30 cm and H: −0.65 cm relative to the 0 point defined according to Paxinos and Watson). Three to four screws are arranged on the animal's skull and the whole is fixed with dental cement (Durelon). After a recovery period during which the animals become used to the tester, a CMA 12 microdialysis cannula is inserted in the guide in such a way that the cellophane membrane projects 2 mm into the brain tissue. All the perfusions are effected on animals that are awake. A physiological solution (NaCl: 140 mM; KCl: 5 mM; […]: 3.9 mM), to which 250 μM of Na salicylate is added extemporaneously, is injected into the system at a constant flow rate of 1 μl.min^−1. […]
Salicylic acid present in the perfusion fluid reacts with the OH radicals released at the perfusion site, forming a compound, 2,3-dihydroxybenzoic acid (2,3-DBHA), which is specific to this reaction. This reaction product is quantified in each sample by high-performance liquid chromatography followed by Electrochemical Detection. […]

Data set [2] is described as follows: Chemical test of capture of OH• radicals (deoxyribose competition). The format is biochemical. Particulars: rate constant of reaction of the competitor with OH•; competition with 2-deoxyribose, UV at 532 nm. The procedure:
A) Chemical test of capture of OH^• radicals:
(Free Rad. Res. Comms., Vol. 14, Nos. 5-6, pp. 363-372)
[…] of buffer (30 mM Na2HPO4.7H2O, 40 mM NaCl, 0.1 mM EDTA), 125 ml of deoxyribose at 2.10^−3 mM and 125 ml of 4-times concentrated solution of radical inhibitor (final concentration from 0 to 0.5 mM) were placed in glass haemolysis tubes cooled on an ice bath. […] of FeSO4 at 10^−3 mM (in water) is added at time 0. After 15 min of incubation the reaction is stopped with 250 ml of trichloroacetic acid at 3%, to which is added 250 ml of solution of thiobarbituric acid at 1.5% (in water). The tubes are kept at 100° C. for 10 min then cooled for detection with UV at 532 nm. The linear relation A0/A=1+ks/dkr [(competitor)/(2-deoxyribose)] was used, where A0 and A denote the absorbances in the absence and in the presence of competitor, ks is the rate constant of reaction of the competitor with OH• and kdr=1.9*10^9 M^−1 sec^−1 is the rate constant of reaction of 2-deoxyribose with OH•. Thus ks is equal to the gradient of the straight line A0/A f((competitor)/(2-deoxyribose)) multiplied by kdr.

Chain of xanthine oxidase (P47989 whole entry, species assumed): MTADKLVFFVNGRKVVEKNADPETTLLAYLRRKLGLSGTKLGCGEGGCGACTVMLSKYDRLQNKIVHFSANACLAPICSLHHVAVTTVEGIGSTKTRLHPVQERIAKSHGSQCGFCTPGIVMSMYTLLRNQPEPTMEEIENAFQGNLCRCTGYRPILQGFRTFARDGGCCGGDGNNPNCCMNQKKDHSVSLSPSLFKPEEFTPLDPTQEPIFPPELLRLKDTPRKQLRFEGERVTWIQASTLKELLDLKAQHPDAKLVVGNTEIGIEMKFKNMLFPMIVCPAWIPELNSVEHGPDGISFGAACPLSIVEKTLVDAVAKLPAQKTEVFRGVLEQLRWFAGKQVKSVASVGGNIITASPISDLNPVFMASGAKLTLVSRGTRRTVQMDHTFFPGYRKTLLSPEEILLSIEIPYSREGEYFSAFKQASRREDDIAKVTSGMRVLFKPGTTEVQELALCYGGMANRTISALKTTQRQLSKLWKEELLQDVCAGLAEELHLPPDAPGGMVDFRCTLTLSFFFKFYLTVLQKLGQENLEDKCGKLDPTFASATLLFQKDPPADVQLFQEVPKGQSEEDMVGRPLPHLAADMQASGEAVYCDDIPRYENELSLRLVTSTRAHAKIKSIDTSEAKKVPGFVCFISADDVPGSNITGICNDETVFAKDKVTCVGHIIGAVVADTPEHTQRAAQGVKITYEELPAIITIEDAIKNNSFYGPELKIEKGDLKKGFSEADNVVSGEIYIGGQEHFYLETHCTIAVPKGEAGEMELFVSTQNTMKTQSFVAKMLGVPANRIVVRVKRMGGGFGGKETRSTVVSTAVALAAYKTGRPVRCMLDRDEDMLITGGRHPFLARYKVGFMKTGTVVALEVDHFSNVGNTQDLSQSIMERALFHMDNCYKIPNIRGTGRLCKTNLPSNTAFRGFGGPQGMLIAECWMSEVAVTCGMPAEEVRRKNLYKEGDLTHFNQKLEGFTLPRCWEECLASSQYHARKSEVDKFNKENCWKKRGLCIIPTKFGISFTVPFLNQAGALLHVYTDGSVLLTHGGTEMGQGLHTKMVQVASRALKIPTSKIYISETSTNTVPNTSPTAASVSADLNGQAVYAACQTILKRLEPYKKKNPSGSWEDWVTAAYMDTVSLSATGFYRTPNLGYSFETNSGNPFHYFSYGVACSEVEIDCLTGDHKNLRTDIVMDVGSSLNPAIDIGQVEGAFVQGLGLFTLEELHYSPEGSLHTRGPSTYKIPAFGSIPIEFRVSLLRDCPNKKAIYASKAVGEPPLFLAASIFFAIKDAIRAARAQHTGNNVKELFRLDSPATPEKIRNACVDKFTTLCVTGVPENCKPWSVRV

As to `c1cc2c(s1)CCCC2N1CCOCC1` (centres unmarked) [IC180, morpholine-4-tetrahydro-4,5,6,7-benzothiophene], on xanthine oxidase (read-out: % inhibition 100 μM), the inhibition at 100 µM is 0%. Also, the inhibition at 500 µM at xanthine oxidase (read-out: % inhibition 500 μM) worked out at 2%. In addition, the “release of free radicals induced by glutamate (2,3-dihydroxybenzoic acid)” value in data set [1] (striatum, awake rats, 1.5 mM Na glutamate, FIG. 9) is recorded as “Blocking”. Besides, the “toxic side effect of introduction in situ” value in data set [1] (response restored a week later) is recorded as “did not have a toxic side effect”. For the same compound, the “ks (10^−9M^−1 sec^−1) (±SEM)” value in data set [2] is listed as 3.75 ± 0.33 10^−9M^−1 sec^−1.

One may read the inhibition as the relative decrease from the control value, in per cent.
